From PMC11643744, “New Conjugates of Vancomycin with Cell-Penetrating Peptides—Synthesis, Antimicrobial Activity, Cytotoxicity, and BBB Permeability Studies” (Molecules, 2024)
Converted amounts (≈) assume the structure as drawn.

Columns and labels:
E. coli ATCC 25922 = assay: microbe, parasite or virus in culture; assay type: cell-based, Escherichia coli; conditions: reference strain
Protocol: (§1) The antimicrobial activity of the synthesized compounds was evaluated against four reference bacterial strains: Staphylococcus aureus (ATCC 29213), Enterococcus faecalis (ATCC 29212), Escherichia coli (ATCC 25922), and Pseudomonas aeruginosa (ATCC 27853), which are commonly used for determining antibacterial activity. In addition, two clinical strains, S. aureus (MRSA) and E. faecium (VRE), were included in the study. The bacterial strains were inoculated from Selectrol discs (Biomaxima SA, Lublin, Poland) onto blood agar (Graso Biotech, Starogard Gdański, Poland) and incubated at 37 °C for 24 h. Before testing, the strains were cultured aerobically on blood agar at 37 °C for 24 h.
(§2) The susceptibility of microorganisms to the synthesized compounds was determined using the broth microdilution assay, following the guidelines outlined by CLSI [30]. The final concentrations of the tested compounds in Mueller–Hinton broth, in 96-well plates (VWR International Sp. z o.o., Gdańsk, Poland), ranged from 0.125 to 256 mg/L. To prepare the bacterial suspension, bacteria from the overnight culture on blood agar were diluted in sterile 0.9% NaCl to achieve a turbidity equivalent to a 0.5 McFarland standard. The adjusted inoculum suspension was further diluted in Mueller–Hinton broth so that after inoculation, each well contained approximately 5 × 10^5 CFU/mL. Aliquots (5 µL) of bacterial suspension were added to each solution. The sterility control (containing the broth) and the growth control (containing the reference strain in broth without the tested compound) were also set up. The antibiotics vancomycin and gentamicin were used as a control. The plates were incubated at 37 °C under aerobic conditions. The results are expressed as the MIC of the tested compounds, which was defined as the lowest concentration at which no visible growth of bacteria (no turbidity) was observed. The assay was performed in triplicate.

[1] = system: S. aureus MRSA (clinical isolate no 203); assay: microbe, parasite or virus in culture; assay type: cell-based, Staphylococcus aureus; conditions: methicillin-resistant clinical isolate no 203; read-out: MIC S. aureus MRSA
Protocol: as §1, §2

S. aureus ATCC 29213 = assay: microbe, parasite or virus in culture; assay type: cell-based, Staphylococcus aureus; conditions: reference strain; for MIC: read-out: MIC S. aureus ATCC 29213
Protocol: as §1, §2

E. faecalis ATCC 29212 = assay: microbe, parasite or virus in culture; assay type: cell-based, Enterococcus faecalis; conditions: reference strain; for MIC: read-out: MIC E. faecalis ATCC 29212
Protocol: as §1, §2

PAMPA-BBB assay = conditions: 20 h incubation; for R, mass retention: mean ± SEM; for Papp at 20 h, 20 µM: pig, PAMPA, pH 7.4, Pe, effective permeability coefficient, pH 7.4, mean ± SEM
Source text: This assay utilized a 96-well plate assembly consisting of a filter plate pre-coated with polar brain lipids (donor plate) and a receiver plate (acceptor plate). The phospholipid mixture used to coat the membrane was extracted from porcine polar brain lipids, with the following composition: 12.6% phosphatidylcholine, 33.1% phosphatidylethanolamine, 18.5% phosphatidylserine, 4.1% phosphatidylinositol, 0.8% phosphatidic acid, and 30.9% of other compounds, including cerebrosides, sulfatides, and pigments.
In each well of the donor filtration plate (Multiscreen Filter Plate, PVDF with a pore size of 0.45 µm), 5 µL of the phospholipid mixture in n-dodecane (20 mg/mL) was carefully applied to form the artificial membrane. After coating, 200 µL of phosphate-buffered saline (PBS at pH 7.4) containing 5% dimethyl sulfoxide (DMSO) as a co-solvent, and the test compound (at a concentration of 20 µM) was added to each well of the donor plate (in triplicate). […] The plate lid was then replaced and the resulting assembled donor–acceptor plates were incubated at room temperature for 20 h. After this time, the donor plate was removed and solutions from each well of both acceptor and donor plates were collected for further analysis. The concentrations of the tested compounds were determined by LC-MS. The analysis was conducted by UHPLC-MS system (Shimadzu Nexera X2 with LCMS-2020 detector) using a ReproSil Pure 120 ODS-3 column (Dr. Maisch GmbH, 100 × 2 mm, 2.4 µm particle size) with several gradients of ACN with 0.1% FA and 0.05% TFA at a flow rate of 0.3 mL/min. The eluted solution was monitored by an ESI-MS detector operated in a selected ion monitoring mode (SIM). […] CE=CD×VD+CA×VA/VD+VA

[2] = system: E. faecium VRE (clinical isolate UCK 7979384); assay: microbe, parasite or virus in culture; assay type: cell-based; conditions: vancomycin-resistant clinical isolate UCK 7979384; read-out: MIC E. faecium VRE
Protocol: as §1, §2

[3] = system: normal human fibroblasts, BJ line (CRL-2522); assay: Neutral red cytotoxicity assay; conditions: 24 h; for effect on cell viability: across the tested concentration range
Protocol: Normal human fibroblasts, BJ line (CRL-2522™), Eagle’s Minimum Essential Medium (EMEM), and fetal bovine serum (FBS) were obtained from ATCC (Manassas, VA, USA). Cells were grown following ATCC guidelines in an EMEM medium supplemented with 10% FBS at 37 °C in a humidified atmosphere of 95% air and 5% CO2 in a HeraCell 150 incubator (Heraeus, Hanau, Germany).
The assay was performed as per previously published protocols with slight modifications. In brief, BJ cells were plated in 96-well tissue culture plates (Nest Scientific Biotechnology, Wuxi, China) at a density of 6 × 10^3 cells per well and allowed to attach for 24 h in EMEM supplemented with 10% FBS. After the incubation period, the medium was removed, and 10% dimethyl sulfoxide (DMSO)-treated cells (Sigma-Aldrich, St. Louis, MO, USA) were used as a positive control, while nontreated cells served as a negative control.
The cells were treated with peptides suspended in EMEM medium supplemented with 10% FBS and incubated for 24 h at 37 °C in a humidified atmosphere of 95% air and 5% CO2. After the incubation, the supernatants were discarded and replaced with 100 µL of non-supplemented EMEM containing 0.33% neutral red (Sigma-Aldrich) diluted 1:40. The cells were incubated for an additional 2 h at 37 °C. Following incubation, the neutral red medium was removed, and the cells were washed with 100 µL of phosphate-buffered saline (PBS) per well.
To extract the dye into the solution, the cells were treated with 150 µL of a solution containing 50% ethanol (Alchem, Torun, Poland), 49% distilled H2O, and 1% acetic acid (Alchem, Torun, Poland) and incubated under shaking at 37 °C for 10 min. Absorbance was measured at 540 nm using a Synergy H1 plate reader (BioTek Instruments, Winooski, VT, USA). The assay was performed in triplicate to ensure reproducibility.

| SMILES | MIC (E. coli ATCC 25922) | MIC [1] | MIC (S. aureus ATCC 29213) | MIC (E. faecalis ATCC 29212) | R, mass retention (PAMPA-BBB assay) | MIC [2] | effect on cell viability [3] | Papp at 20 h, 20 µM (PAMPA-BBB assay) | concentration above which cytotoxicity was shown [3] | MIC E. coli ATCC 25922 (E. coli ATCC 25922) | MIC S. aureus ATCC 29213 (S. aureus ATCC 29213) | MIC E. faecalis ATCC 29212 (E. faecalis ATCC 29212) |
| --- | --- | --- | --- | --- | --- | --- | --- | --- | --- | --- | --- | --- |
| CC[C@H](C)[C@H](NC(=O)[C@H](CCCCN)NC(=O)[C@H](CCCCN)NC(=O)[C@H](C)NC(=O)[C@H](CC(C)C)NC(=O)[C@H](C)NC(=O)[C@H](C)NC(=O)[C@H](CC(C)C)NC(=O)[C@H](C)NC(=O)[C@H](CCCCN)NC(=O)[C@H](CC(C)C)NC(=O)[C@H](CC(N)=O)NC(=O)[C@@H](NC(=O)[C@H](CCCCN)NC(=O)CNC(=O)[C@H](CC(C)C)NC(=O)[C@H](CC(C)C)NC(=O)[C@H](Cc1ccc(O)cc1)NC(=O)CNC(=O)[C@H](C)N)[C@@H](C)CC)C(=O)N[C@@H](CC(C)C)C(N)=O [compound 1, TP10] | 14.7 µM (≈ 32.1 µg/mL) | 3.67 µM (≈ 8.01 µg/mL) | 14.7 µM (≈ 32.1 µg/mL) | 29.3 µM (≈ 63.9 µg/mL) |  |  |  |  |  |  |  |  |
| C#CC(=O)N[C@@H](Cc1ccc(O)cc1)C(=O)NCC(=O)N[C@@H](CCCNC(=N)N)C(=O)N[C@@H](CCCCN)C(=O)N[C@@H](CCCCN)C(=O)N[C@@H](CCCNC(=N)N)C(=O)N[C@@H](CCCNC(=N)N)C(=O)N[C@@H](CCC(N)=O)C(=O)N[C@@H](CCCNC(=N)N)C(=O)N[C@@H](CCCNC(=N)N)C(=O)N[C@@H](CCCNC(=N)N)C(N)=O [compound 4] | 79.5 µM (≈ 128 µg/mL) | 19.9 µM (≈ 32.1 µg/mL) | 4.97 µM (≈ 8.01 µg/mL) | 159 µM (≈ 256 µg/mL) | 3.3 ± 0.7% | 19.9 µM (≈ 32.1 µg/mL) | did not significantly affect cell viability |  |  |  |  |  |
| CN[C@H](CC(C)C)C(=O)N[C@H]1C(=O)N[C@@H](CC(N)=O)C(=O)N[C@H]2C(=O)N[C@H]3C(=O)N[C@H](C(=O)N[C@H](C(=O)NCCOCCOCCOCCn4cc(C(=O)N[C@@H](Cc5ccc(O)cc5)C(=O)N[C@@H](C)C(=O)N[C@@H](CCCNC(=N)N)C(=O)N[C@@H](C)C(=O)N[C@@H](C)C(=O)N[C@@H](C)C(=O)N[C@@H](CCCNC(=N)N)C(=O)N[C@@H](CCC(N)=O)C(=O)N[C@@H](C)C(=O)N[C@@H](CCCNC(=N)N)C(=O)N[C@@H](C)C(N)=O)nn4)c4cc(O)cc(O)c4-c4cc3ccc4O)[C@H](O)c3ccc(c(Cl)c3)Oc3cc2cc(c3O[C@@H]2O[C@H](CO)[C@@H](O)[C@H](O)[C@H]2O[C@H]2C[C@](C)(N)[C@H](O)[C@H](C)O2)Oc2ccc(cc2Cl)[C@H]1O [compound 10] |  |  |  |  | 2.0 ± 0.6% |  |  | 0.01 ± 0.003 ×10⁻⁶ cm/s | above 16 µg/mL |  |  |  |
| CN[C@H](CC(C)C)C(=O)N[C@H]1C(=O)N[C@@H](CC(N)=O)C(=O)N[C@H]2C(=O)N[C@H]3C(=O)N[C@H](C(=O)N[C@H](C(=O)O)c4cc(O)cc(O)c4-c4cc3ccc4O)[C@H](O)c3ccc(c(Cl)c3)Oc3cc2cc(c3O[C@@H]2O[C@H](CO)[C@@H](O)[C@H](O)[C@H]2O[C@H]2C[C@](C)(NC(=O)CCOCCOCCOCCOCCn3cc(C(=O)N[C@@H](Cc4ccc(O)cc4)C(=O)N[C@@H](C)C(=O)N[C@@H](CCCNC(=N)N)C(=O)N[C@@H](C)C(=O)N[C@@H](C)C(=O)N[C@@H](C)C(=O)N[C@@H](CCCNC(=N)N)C(=O)N[C@@H](CCC(N)=O)C(=O)N[C@@H](C)C(=O)N[C@@H](CCCNC(=N)N)C(=O)N[C@@H](C)C(N)=O)nn3)[C@H](O)[C@H](C)O2)Oc2ccc(cc2Cl)[C@H]1O [compound 11] |  |  |  |  | 32.7 ± 0.9% |  |  | 0.066 ± 0.007 ×10⁻⁶ cm/s | > 64 µg/mL |  |  |  |
| CN[C@H](CC(C)C)C(=O)N[C@H]1C(=O)N[C@@H](CC(N)=O)C(=O)N[C@H]2C(=O)N[C@H]3C(=O)N[C@H](C(=O)N[C@H](C(=O)NCCSSCCn4cc(C(=O)N[C@@H](Cc5ccc(O)cc5)C(=O)N[C@@H](C)C(=O)N[C@@H](CCCNC(=N)N)C(=O)N[C@@H](C)C(=O)N[C@@H](C)C(=O)N[C@@H](C)C(=O)N[C@@H](CCCNC(=N)N)C(=O)N[C@@H](CCC(N)=O)C(=O)N[C@@H](C)C(=O)N[C@@H](CCCNC(=N)N)C(=O)N[C@@H](C)C(N)=O)nn4)c4cc(O)cc(O)c4-c4cc3ccc4O)[C@H](O)c3ccc(c(Cl)c3)Oc3cc2cc(c3O[C@@H]2O[C@H](CO)[C@@H](O)[C@H](O)[C@H]2O[C@H]2C[C@](C)(N)[C@H](O)[C@H](C)O2)Oc2ccc(cc2Cl)[C@H]1O [compound 12] |  |  |  |  | 12.7 ± 2.2% |  | did not significantly affect cell viability | 0.036 ± 0.004 ×10⁻⁶ cm/s |  |  |  |  |
| C#CC(=O)N[C@@H](CCCNC(=N)N)C(=O)N[C@@H](CCCNC(=N)N)C(=O)N[C@@H](CCCNC(=N)N)C(=O)N[C@@H](CCCNC(=N)N)C(=O)N[C@@H](CCCNC(=N)N)C(=O)N[C@@H](CCCNC(=N)N)C(=O)N[C@@H](CCCNC(=N)N)C(=O)N[C@@H](CCCNC(=N)N)C(=O)N[C@@H](CCCNC(=N)N)C(N)=O [compound 14] | 43 µM (≈ 63.4 µg/mL) | 2.71 µM (≈ 4 µg/mL) | 21.7 µM (≈ 32 µg/mL) | 87 µM (≈ 128 µg/mL) | 8.0 ± 1.2% | 21.7 µM (≈ 32 µg/mL) |  |  |  |  |  |  |
| CN[C@H](CC(C)C)C(=O)N[C@H]1C(=O)N[C@@H](CC(N)=O)C(=O)N[C@H]2C(=O)N[C@H]3C(=O)N[C@H](C(=O)N[C@H](C(=O)NCCSSCCn4cc(C(=O)N[C@@H](CCCNC(=N)N)C(=O)N[C@@H](CCCNC(=N)N)C(=O)N[C@@H](CCCNC(=N)N)C(=O)N[C@@H](CCCNC(=N)N)C(=O)N[C@@H](CCCNC(=N)N)C(=O)N[C@@H](CCCNC(=N)N)C(=O)N[C@@H](CCCNC(=N)N)C(=O)N[C@@H](CCCNC(=N)N)C(=O)N[C@@H](CCCNC(=N)N)C(N)=O)nn4)c4cc(O)cc(O)c4-c4cc3ccc4O)[C@H](O)c3ccc(c(Cl)c3)Oc3cc2cc(c3O[C@@H]2O[C@H](CO)[C@@H](O)[C@H](O)[C@H]2O[C@H]2C[C@](C)(N)[C@H](O)[C@H](C)O2)Oc2ccc(cc2Cl)[C@H]1O [compound 17] | >83 µM |  | 1.30 µM (≈ 4.01 µg/mL) | 2.59 µM (≈ 7.99 µg/mL) | 20.7 ± 0.3% |  |  |  |  | >256 µg/mL | 4 µg/mL (≈ 1.3 µM) | 8 µg/mL (≈ 2.59 µM) |
